Experimental data taken from patent US11259522B2, “Control of resistant pests” (priority 2017, dated 2022).

What was measured:
[1] = system: Rhipicephalus microplus larvae, multi-resistant Tiaro reference strain; test: Larval packet test (LPT), cattle tick larvae, multi-resistant strain; assay type: in vivo; conditions: for LC50 (ppm) / LC99 (ppm): Tiaro, Probit analysis
Experimental: Filter papers (75 mm×85 mm Whatman® No. 541), with grid patterns, were impregnated on ½ of the paper with 225 μL of each solution using a micro-pipette and immediately folded in half, enveloped in polyethylene plastic and sealed with 3 bulldog clips. The impregnated papers were kept at room temperature on aluminium trays for a minimum of 60 minutes to allow for dispersal across the grid pattern of the paper prior to aliquoting of larvae. The packets were prepared in duplicate for each concentration, including the negative control.
Aliquots of approximately 100 larvae were placed into each packet using plastic disposable forceps and the packets resealed and incubated and 27° C. and 85% relative humidity (RH).
After 24 hours, the larval packets were opened and the numbers of dead and live larvae were counted under a magnification lamp. Percentage mortality was calculated and, where applicable, corrected using Abbott's Formula (Abbott, 1925, J. Economic Entomology, 18:256-257): […]
LC50 and LC99 values were determined by Probit mortality vs log concentration analysis. Probit values were derived from “Transformation of Percentages to Probit's Tables” published by Fisher R. A. and Yates F. (1938).
The LPT Assay of Example 1 was repeated using a narrow range of concentrations, 1 in 2 series, of flavesone to determine LC50 and LC99 values against the susceptible NRFS and the multi-resistant Tiaro reference strain.
The Tiaro strain of R. microplus comprises of about 30% fluazuron, 60.6% cypermethrin (SP), 57.6% flumethrin (SP), 16.2% amitraz (amidine), 11.3% DDT, 9.3% chlorpyrifos (OP) and 2.4% dieldrin resistance [2014 acaricide resistance profiling].
The stock solution of flavesone (100,000 ppm) was diluted 1 in 10 with olive oil (1 mL to 9 mL diluent) to give 10,000 ppm, which was then further diluted 1 in 2 in series (5 mL to 5 mL diluent) to give 5,000 ppm, 2,500 ppm, 1,250 ppm, 625 ppm, 312.5 ppm and 156.25 ppm concentrations.
For the preparation of the positive control, cypermethrin, a stock solution of a concentration of 10,000 ppm was prepared in 2:1 trichloroethylene (TCE)/olive oil as the solvent ([…] cypermethrin, 94.8% purity, to 10 mL solvent) and then further diluted 1 in 2 in series (5 mL to 5 mL solvent) to also give 5,000 ppm, 2,500 ppm, 1,250 ppm, 625 ppm, 312.5 ppm and 156.25 ppm.
The flavesone papers were prepared as in Example 1.
The cypermethrin papers were impregnated with 670 μL of each solution using a micro-pipette and hung on a rack in a fume-hood to allow papers to dry (evaporation of TCE) for a minimum of 60 minutes. The papers were then folded in half and sealed with three bulldog clips, placed on aluminium trays prior to aliquoting the larvae. All packets were prepared in duplicate.
A dose-response relationship was determined at 24 hours contact exposure.
Concentrations of 1,250 ppm, 625 ppm and 312.5 ppm flavesone concentrations prepared for Example 3 were used on the same day of preparation. Duplicate papers were prepared for both the NRFS and Tiaro strains (including negative controls) as described in Example 2.
Mortality was assessed at 48 hours and LC50 and LC99 values were determined by Probit mortality vs log concentration analysis.

[2] = system: Tribolium castaneum strain QTC279 (resistant to malathion and bioresmethrin); test: Grain protectant bioassay on treated wheat, T. castaneum resistant; assay type: in vivo; conditions: for Progeny reduction (%): vs untreated control
[3] = Rhipicephalus microplus, Example 2, 24 hours
[4] = Rhipicephalus microplus, Example 4, 48 hours

With `CC(C)C(=O)C1C(=O)C(C)(C)C(=O)C(C)(C)C1=O` [Flavesone, 1-isobutyroyl-3,3,5,5-tetramethylcyclohexane-2,4,6-trione] the “cross-resistance, comparing LC50 and LC99 data between NRFS and Tiaro strains” value ([1]; Example 2, 24 hours) was “no evidence of cross-resistance”, the “LC50 (ppm)” value ([1]; Example 2, 24 hours) was 647 ppm and the “LC99 (ppm)” value ([1]; Example 2, 24 hours) was 1039 ppm. For the same compound, the “LC50 (ppm)” value ([1]; Example 4, 48 hours) was 521 ppm, the “LC99 (ppm)” value ([1]; Example 4, 48 hours) was 887 ppm and the mortality at 2.5 ppm ([1]; Rhipicephalus microplus, Example 2, 2.500 ppm, 24 hours) was 100%. For the same compound, the mortality at 156.25 ppm ([1]; Rhipicephalus microplus, Example 2, 156.25 ppm, 24 hours) was 0%, the mortality at 312.5 ppm [1, 3] was 0.13% and the mortality at 625 ppm [1, 3] was 12.8%. The mortality at 1250 ppm ([1]; Rhipicephalus microplus, Example 2, 1,250 ppm, 24 hours) was 100%, the mortality at 5000 ppm ([1]; Rhipicephalus microplus, Example 2, 5,000 ppm, 24 hours) was 100% and the mortality at 10000 ppm ([1]; Rhipicephalus microplus, Example 2, 10,000 ppm, 24 hours) was 100%. For the same compound, the mortality at 312.5 ppm [1, 4] was 0.97%, the mortality at 625 ppm [1, 4] was 84.1% and the mortality at 1250 ppm ([1]; Rhipicephalus microplus, Example 4, 1250 ppm, 48 hours) was 100%. The Live adult progeny ([2]; 25 mg/kg, mean ± SE) was 265.3 ± 27.7, the “Progeny reduction (%)” value ([2]; 25 mg/kg) was 17.4% and the Live adult progeny ([2]; 60 mg/kg, mean ± SE) was 204.3 ± 27.8. The “Progeny reduction (%)” value ([2]; 60 mg/kg) was 36.4%, the “Progeny reduction (%)” value ([2]; 60 mg/kg, listed as flavesone) was 36% and the mortality at 25 mg/kg ([2]; Tribolium castaneum, 336 h, 25 mg/kg, 2 weeks, mean ± SE, read-out: Adult mortality (%)) was 0%. The mortality at 60 mg/kg ([2]; Tribolium castaneum, 336 h, 60 mg/kg, 2 weeks, mean ± SE, read-out: Adult mortality (%)) was 0%.
